From ChEMBL document CHEMBL1122324, “New antihypertensive cannabinoids” (1983) come the findings set out here.

Molecules are shown by their SMILES.

Details in all cases: route oral
The subject of test [1] is Rattus norvegicus. Briefly: Percentage decrease in systolic blood pressure after 4 hr at 10 mg/kg administered perorally in rats. It is filed as functional, Artery.
Test [2] deals with Rattus norvegicus. As to the kind of experiment: Percentage decrease in systolic blood pressure after 24 hr at 3 mg/kg administered perorally in rats. Type of test: functional, Artery.
Test [3] relates to Rattus norvegicus. Briefly: Percentage decrease in systolic blood pressure after 24 hr at 10 mg/kg administered perorally in rats. Type of test: functional, Artery.
Test [4] has as its system Rattus norvegicus. As to the kind of experiment: Percentage decrease in systolic blood pressure after 4 hr at 3 mg/kg administered perorally in rats. Type of test: functional, Artery.
The subject of test [5] is Rattus norvegicus. Briefly: percentage decrease in heart rate after 4 hr at a dose of 100 mg/kg administered perorally in rats. Type of test: functional.
The test system of test [6] is Rattus norvegicus. Briefly: Percentage decrease in systolic blood pressure after 4 hr at 100 mg/kg administered perorally in rats. It is filed as functional, Artery.
Test [7] relates to Rattus norvegicus. Briefly: Percentage decrease in systolic blood pressure after 6 hr at 30 mg/kg administered perorally in rats. Type of test: functional, Artery.
In test [8] the test system is Rattus norvegicus. Briefly: percentage decrease in heart rate after 1 hr at a dose of 30 mg/kg administered perorally in rats. It is filed as functional.
Test [9] has as its system Rattus norvegicus. As to the kind of experiment: Percentage decrease in systolic blood pressure after 1 hr at 30 mg/kg administered perorally in rats. It is filed as functional, Artery.
In test [10] the test system is Rattus norvegicus. Briefly: Percentage decrease in systolic blood pressure after 4 hr at 30 mg/kg administered perorally in rats. Type of test: functional, Artery.
In test [11] the test system is Rattus norvegicus. Briefly: percentage decrease in heart rate after 6 hr at a dose of 30 mg/kg administered perorally in rats. Type of test: functional.
In test [12] the test system is Rattus norvegicus. Briefly: percentage decrease in heart rate after 4 hr at a dose of 30 mg/kg administered perorally in rats. Type of test: functional.
The subject of test [13] is Rattus norvegicus. Briefly: Percentage decrease in systolic blood pressure after 24 hr at 30 mg/kg administered perorally in rats. It is filed as functional, Artery.
The test system of test [14] is Rattus norvegicus. As to the kind of experiment: percentage decrease in heart rate after 24 hr at a dose of 30 mg/kg administered perorally in rats. Type of test: functional.
For test [15], the system named is Rattus norvegicus. Briefly: Percentage decrease in systolic blood pressure after 6 hr at 10 mg/kg administered perorally in rats. It is filed as functional, Artery.
Test [16] has as its system Rattus norvegicus. Briefly: percentage decrease in heart rate after 24 hr at a dose of 10 mg/kg administered perorally in rats. Type of test: functional.
In test [17] the test system is Rattus norvegicus. As to the kind of experiment: percentage decrease in heart rate after 6 hr at a dose of 10 mg/kg administered perorally in rats. Type of test: functional.
Test [18] relates to Rattus norvegicus. Briefly: percentage decrease in heart rate after 6 hr at a dose of 3 mg/kg administered perorally in rats. It is filed as functional.
Test [19] deals with Rattus norvegicus. Briefly: percentage decrease in heart rate after 24 hr at a dose of 3 mg/kg administered perorally in rats. It is filed as functional.
In test [20] the test system is Rattus norvegicus. As to the kind of experiment: percentage decrease in heart rate after 1 hr at a dose of 10 mg/kg administered perorally in rats. Type of test: functional.
The test system of test [21] is Rattus norvegicus. Briefly: Percentage decrease in systolic blood pressure after 6 hr at 3 mg/kg administered perorally in rats. It is filed as functional, Artery.
Test [22] relates to Rattus norvegicus. As to the kind of experiment: percentage decrease in heart rate after 4 hr at a dose of 3 mg/kg administered perorally in rats. Type of test: functional.
In test [23] the test system is Rattus norvegicus. As to the kind of experiment: percentage decrease in heart rate after 4 hr at a dose of 10 mg/kg administered perorally in rats. It is filed as functional.
For test [24], the system named is Rattus norvegicus. Briefly: percentage decrease in heart rate after 1 hr at a dose of 3 mg/kg administered perorally in rats. Type of test: functional.
The subject of test [25] is Rattus norvegicus. As to the kind of experiment: Percentage decrease in systolic blood pressure after 1 hr at 3 mg/kg administered perorally in rats. It is filed as functional, Artery.
The test system of test [26] is Rattus norvegicus. Briefly: Percentage decrease in systolic blood pressure after 1 hr at 10 mg/kg administered perorally in rats. Type of test: functional, Artery.
Test [27] concerns Rattus norvegicus. As to the kind of experiment: Percentage decrease in systolic blood pressure (heart rate) after 4 hr at 30 mg/kg administered perorally in rats. Type of test: functional, Artery.
Test [28] deals with Rattus norvegicus. Briefly: percentage decrease in heart rate after 1 hr at a dose of 30 mg/kg administered perorally in rats. It is filed as functional.
The subject of test [29] is Rattus norvegicus. Briefly: percentage decrease in heart rate after 24 hr at a dose of 30 mg/kg administered perorally in rats. Type of test: functional.
Test [30] deals with Rattus norvegicus. As to the kind of experiment: percentage decrease in heart rate after 6 hr at a dose of 30 mg/kg administered perorally in rats. It is filed as functional.
Test [31] concerns Rattus norvegicus. As to the kind of experiment: percentage decrease in heart rate after 4 hr at a dose of 30 mg/kg administered perorally in rats. Type of test: functional.
Test [32] relates to Rattus norvegicus. Briefly: Percentage decrease in systolic blood pressure (heart rate) after 4 hr at 100 mg/kg administered perorally in rats. It is filed as functional, Artery.
For test [33], the system named is Rattus norvegicus. As to the kind of experiment: percentage decrease in heart rate after 6 hr at a dose of 10 mg/kg administered perorally in rats. Type of test: functional.
For test [34], the system named is Rattus norvegicus. As to the kind of experiment: percentage decrease in heart rate after 4 hr at a dose of 10 mg/kg administered perorally in rats. It is filed as functional.
The subject of test [35] is Rattus norvegicus. Briefly: percentage decrease in heart rate after 24 hr at a dose of 10 mg/kg administered perorally in rats. It is filed as functional.
Test [36] has as its system Rattus norvegicus. Briefly: percentage decrease in heart rate after 1 hr at a dose of 10 mg/kg administered perorally in rats. It is filed as functional.

Consider `C#CCN1CCC2=C(C1)c1c(O)cc(C(C)C(C)CCCCC)cc1OC2(C)C` (stereo unspecified), for which the “Decrease in Systolic blood pressure” value in the test with Rattus norvegicus [1] amounted to 23%; with Rattus norvegicus [2] it was 4%; in the test on Rattus norvegicus [3], 27%; in the test with Rattus norvegicus [4], 7%.

In the case of `CCCCCC(C)C(C)c1cc(O)c2c(c1)OC(C)(C)C1CCN(C(=O)CN3CCCCC3)C=C21` (stereo unspecified), in the test with Rattus norvegicus [5], the Heart rate is on record as -8%. For the same compound, in the test with Rattus norvegicus [6], the “Decrease in Systolic blood pressure” value was determined as 10%.

Regarding `CCCCCC(C)C(C)c1cc(O)c2c(c1)OC(C)(C)C1=C2CN(C(=O)CN)CC1` (stereo unspecified), the “Decrease in Systolic blood pressure” value was 8% in the test on Rattus norvegicus [7], 12% in the test with Rattus norvegicus [9], 10% in the test with Rattus norvegicus [10] and 2% with Rattus norvegicus [13]. Besides, the Heart rate in the test on Rattus norvegicus [8] is on record as 9%; with Rattus norvegicus [11], 13%; in the test with Rattus norvegicus [12] it was -5%; with Rattus norvegicus [14] it was 10%.

For `CCCCCC(C)C(C)c1cc(O)c2c(c1)OC(C)(C)C1CCN(C(=O)CO)CC21` (stereo unspecified), the Heart rate in the test on Rattus norvegicus [5] is recorded as 2%. Also, the “Decrease in Systolic blood pressure” value in the test with Rattus norvegicus [6] was found to be 0%.

With `CCCCCC(C)C(C)c1cc(O)c2c(c1)OC(C)(C)C1=C2CN(C(=O)CCCO)CC1` (stereo unspecified), the Heart rate in the test on Rattus norvegicus [5] was found to be 19%. Further, the “Decrease in Systolic blood pressure” value in the test on Rattus norvegicus [6] was found to be 0%.

For the compound `CC(CCCc1ccc(F)cc1)c1cc(O)c2c(c1)OC(C)(C)C1=C2CN(C(=O)CCCO)CC1` (stereo unspecified), the “Decrease in Systolic blood pressure” value in the test with Rattus norvegicus [1] is recorded as 28%; in the test on Rattus norvegicus [15], 19%; with Rattus norvegicus [2], -8%; with Rattus norvegicus [7] it was 12%; with Rattus norvegicus [3] it was 17%; in the test with Rattus norvegicus [9], 11%. Also, the “Decrease in Systolic blood pressure” value in the test on Rattus norvegicus [10] is 26%; in the test on Rattus norvegicus [21], 9%; with Rattus norvegicus [4], 5%; in the test on Rattus norvegicus [6], 32%; with Rattus norvegicus [13], 22%; in the test with Rattus norvegicus [25], -6%. For the same compound, the “Decrease in Systolic blood pressure” value in the test with Rattus norvegicus [26] worked out at 11%. For the same compound, the Heart rate in the test with Rattus norvegicus [16] was 6%; in the test with Rattus norvegicus [17], 16%; in the test on Rattus norvegicus [8], 2%; with Rattus norvegicus [18], 5%; with Rattus norvegicus [19], -24%; in the test on Rattus norvegicus [11], 9%. Besides, the Heart rate in the test on Rattus norvegicus [20] is 3%; in the test on Rattus norvegicus [12] it was 23%; in the test with Rattus norvegicus [22], 0%; in the test with Rattus norvegicus [23], 18%; in the test with Rattus norvegicus [24], -17%; in the test on Rattus norvegicus [5] it was 20%. The Heart rate in the test on Rattus norvegicus [14] amounted to 15%.

For `CCCCCC(C)C(C)c1cc(O)c2c(c1)OC(C)(C)C1CCN(C(=O)CN)C=C21` (stereo unspecified), in the test with Rattus norvegicus [5], the Heart rate amounted to 7%. In addition, in the test on Rattus norvegicus [6], the “Decrease in Systolic blood pressure” value turned out to be 12%.

Turning to `CCCCCC(C)C(C)c1cc(OC(=O)COC(C)=O)c2c(c1)OC(C)(C)C1=C2CN(C(=O)COC(C)=O)CC1` (stereo unspecified), in the test with Rattus norvegicus [27], the “Decrease in Systolic blood pressure” value is on record as 10%.

For `CCCCCC(C)C(C)c1cc(O)c2c(c1)OC(C)(C)C1=C2CN(C(=O)CCO)CC1` (stereo unspecified), in the test with Rattus norvegicus [5], the Heart rate is reported as -1%. The “Decrease in Systolic blood pressure” value in the test with Rattus norvegicus [6] was 6%.

Turning to `CCCCCC(C)C(C)c1cc(O)c2c(c1)OC(C)(C)C1CCN(C(=O)CO)C=C21` (stereo unspecified), the Heart rate with Rattus norvegicus [28] is reported as 6%; with Rattus norvegicus [29], -1%; with Rattus norvegicus [30], 1%; in the test with Rattus norvegicus [5], 19%; in the test with Rattus norvegicus [31] it was -1%. Further, the “Decrease in Systolic blood pressure” value in the test with Rattus norvegicus [7] is 1%; in the test with Rattus norvegicus [9], 2%; in the test on Rattus norvegicus [10] it was -1%; with Rattus norvegicus [6], 49%; in the test on Rattus norvegicus [13], -1%.

Consider `CC(CCCc1ccc(F)cc1)c1cc(O)c2c(c1)OC(C)(C)C1=C2CN(C(=O)CO)CC1` (stereo unspecified), for which the “Decrease in Systolic blood pressure” value was found to be 10% in the test on Rattus norvegicus [27] and 8% in the test on Rattus norvegicus [32]. The Heart rate in the test with Rattus norvegicus [12] amounted to 30%; in the test with Rattus norvegicus [5], 19%.

On to `CCCCCC(C)C(C)c1cc(O)c2c(c1)OC(C)(C)C1=C2CN(C(=O)CN2CCOCC2)CC1` (stereo unspecified), for which the “Decrease in Systolic blood pressure” value in the test on Rattus norvegicus [1] is 8%; in the test on Rattus norvegicus [15], 3%; in the test with Rattus norvegicus [7] it was 27%; in the test with Rattus norvegicus [3] it was 2%; with Rattus norvegicus [9], 10%; in the test with Rattus norvegicus [10], 18%. Moreover, the “Decrease in Systolic blood pressure” value was determined as 40% with Rattus norvegicus [6], 10% with Rattus norvegicus [13] and 4% in the test on Rattus norvegicus [26]. Also, the Heart rate is listed as -2% in the test with Rattus norvegicus [28]; 11% with Rattus norvegicus [33]; 0% in the test with Rattus norvegicus [29]; 7% with Rattus norvegicus [34]; 8% with Rattus norvegicus [35]; 20% with Rattus norvegicus [30]. Also, the results for the Heart rate in the test on Rattus norvegicus [5], in the test on Rattus norvegicus [36] and in the test on Rattus norvegicus [31] were 37%, -21% and 16%, respectively.
